Reference: US7704686B2, “Methods of identifying immunoregulatory agents, immunoregulatory agents, and uses thereof” (Toudai TLO, Ltd., priority 2003, dated 2010)

Tests used:
Type in all cases: cell-based, human
caveolin-1 = test: Western blot of caveolin-1 in siRNA-transfected monocytes; details: 48 hrs after transfection, HVJ-E vector
Procedure: Lysates were generated with RIPA lysis buffer (1% NP-40, 0.5% sodium deoxycholate, 0.1% SDS, 5 mM EDTA, 10 mM Tris-HCl (pH 7.4), 0.15 M NaCl, 1 mM PMSF, 0.5 mM NaF, 10 μg/ml aprotinin and 0.02 mM Na3VO4) from 1.0×10^7 of THP-1 cells incubated with recombinant soluble CD26 (rsCD26) or 1.0×10^7 of TT-loaded monocytes stimulated with rsCD26-coated beads. Then, lysates were clarified by 15,000×g for 30 min. Immunoprecipitates (IPs) were performed by incubating lysates with 2 μg of control immunoglobulins (Ig) and protein G-sepharose beads (Amersham Pharmacia) at 4° C. for 1 h. After centrifugation, supernatants were incubated with 2 μg of specific Ig at 4° C. for 2 h, followed by addition of protein G-sepharose beads for an overnight incubation. After washing four times with RIPA lysis buffer, beads were submitted to SDS-PAGE and Western blot analysis.
To design target-specific siRNA duplexes, the present inventors selected sequences of the type AA(N19) (N, any nucleotide) from the open reading frame of human caveolin-1 (accession number=NM 001753) (Elbashir, et al., 2001). Moreover, the inventors added the sequences to the 2-nucleotide 3′ overhangs of 2′-deoxythymidine (dTdT), in order to generate a symmetric duplex with respect to the sequence composition of the sense and antisense 3′ overhangs. These symmetric 3′ overhangs were reported to help to ensure that the siRNA were formed with approximately equal ratios of sense and antisense target RNA-cleaving siRNA (Elbashir, et al., 2001). Therefore, the present inventors selected two target sequences from 81 to 101 (ss1) and […] (ss2) downstream of the start codon of caveolin-1 mRNA (sense1 siRNA (ss1-siRNA): 5′[…] CAGACdTdT (SEQ ID NO: 6), and sense2 siRNA (ss2-siRNA): 5′ AAGGAGA […] dTdT (SEQ ID NO: 7)). Moreover, mis-siRNA at 4 nucleotides was prepared to examine non-specific effects of siRNA duplexes (mis-siRNA: 5′ […] GCAGACdTdT (SEQ ID NO: 8)). To visualize the efficiency of transfection, the inventors also prepared Texas red-conjugated missense siRNA (mis-siRNA-TR). […]

CD86 = test: Flow cytometry of surface CD86 on TT-loaded monocytes stimulated with CD26-coated beads; details: siRNA-transfected monocytes, stimulated with CD26 wt-coated beads
Procedure: Freshly purified monocytes were cultured in Macrophage-SFM media for 24 h to diminish the effect of serum, and were preincubated with TT at a concentration of 0.5 μg/ml for an additional 24 h. After being washed with PBS, 1.0×10^6 of TT-loaded monocytes were stimulated for indicated periods with […] particles of polystyrene latex beads (Molecular Probes) coated with rsCD26 wt or rsCD26 del 201-211 (1.0 μg/ml). Stimulated monocytes were subjected to confocal laser microscopy, immunoprecipitation assay, Western blotting analysis, or flow cytometry (FCM).
In experiments assessing the expression of CD86 on purified monocytes after preincubation with or without TT (0.5 μg/ml) for 24 hours, following incubation with rsCD26-coated beads for 24 h, FITC-conjugated CD86 mAb (10 μg/ml) were used with PE-conjugated anti-CD14 (10 μg/ml) and Cy Chrome-conjugated CD45 (10 μg/ml) to gate exclusively on the monocyte population. In experiments assessing the effect of siRNA against caveolin-1 in monocytes, purified monocytes were transfected with siRNA as described below, following incubation with rsCD26-coated beads for 24 h, and stained as described above.
(§1) Flow-cytometric analysis of 10,000 viable cells was conducted on Becton-Dickinson FACScalibur. Each experiment was repeated at least three times, and the results were provided in the form of a histogram of a representative experiment, or increased mean percent±standard error (SE) of mean-fluorescent intensity (MFI), compared to control or untreated cells.
To design target-specific siRNA duplexes, the present inventors selected sequences of the type AA(N19) (N, any nucleotide) from the open reading frame of human caveolin-1 (accession number=NM 001753) (Elbashir, et al., 2001). Moreover, the inventors added the sequences to the 2-nucleotide 3′ overhangs of 2′-deoxythymidine (dTdT), in order to generate a symmetric duplex with respect to the sequence composition of the sense and antisense 3′ overhangs. […]

[1] = test system: conjugation of activated T cells and TT-loaded monocytes; test: T cell-APC conjugation assay; details: monocytes preincubated with Filipin 30 min, then with or without TT
Procedure: For T cell-APC conjugation assay as described elsewhere (Lee, et al., 2002), 1.0×10^5 of activated T cells were mixed with 1.0×10^5 of purified monocytes that had been pulsed with or without TT (0.5 μg/ml for indicated time periods), with further centrifugation. Thirty minutes later, cell mixtures were attached to microslide glass (Matsunami Glass Inc., Tokyo, Japan) coated with poly-L-lysine, and fixed with 4% paraformaldehyde in PBS for 15 min at room temperature. Cells were blocked with mouse and rabbit Ig isotypes (1 μg/ml) for 30 min at 4° C., followed by incubation with anti-CD26 mAb and anti-caveolin-1 rabbit pAb (each of 10 μg/ml) for 60 min at 4° C., then washed with ice-cold PBS twice and incubated with FITC conjugated anti-mouse Ig and Texas red conjugated anti-rabbit Ig antibodies (1:200) for 60 min at 4° C. Cells were mounted in coverslips with Antifade Prolong kit. Conjugates were first identified by direct observation under differential interference contrast and then confirmed by detecting the green fluorescence of anti-CD26 mAb in T cells and the red fluorescence of anti-caveolin-1 pAb in monocytes. The proportion of T cell-APC conjugation was calculated by random choice of 500 different cells in a coverslips from five independent experiments. […]

[2] = test system: caveolin-1 on cell surface of monocytes; test: Flow cytometric detection of cell surface caveolin-1 on monocytes; details: Filipin 1.0 μg/ml preincubation 30 min, then with or without TT
Procedure: For assessment of cell surface caveolin-1 exposure, after purified monocytes were treated with TT (0.5 μg/ml) for 0, 6, 12, 24, and 48 h, cells were washed with ice-cold PBS three times, and stained with anti-caveolin-1 antibody (5 μg/ml) for 60 min at 4° C., followed by staining with FITC conjugated anti-rabbit Ig antibody (1:200) for 60 min at 4° C. To disturb caveolae, purified monocytes were treated with Filipin (1.0 μg/ml, Sigma-Aldrich) for 30 min at 37° C. Cells were then subjected to TT loading and to staining caveolin-1 as described above.
as §1

Molecule	caveolin-1 expression in monocytes (knock down) (caveolin-1)	effect on CD86 upregulation in TT-loaded monocytes (CD86)	T cell-monocyte cell conjugation [1]	caveolin-1 on cell surface of monocytes [2]
5′AACAACAAGGCCAUGG CAGACdTdT [ss1]	effectively knocked down	inhibited	–	–
CCCCC[C@@H](O)[C@H]1C(=O)O[C@H](C)[C@@H](O)/C=C/C=C/C=C/C=C/C=C(\C)[C@@H](O)C[C@H](O)C[C@H](O)C[C@H](O)C[C@H](O)C[C@H](O)C[C@@H]1O [Filipin]	–	–	not detected	not detected
5′ AAGGAGA UCGACCUGGUCAAC dTdT [ss2]	effectively knocked down	inhibited	–	–
5′ UACAAGAAGGGCAUG GCAGACdTdT [mismatched siRNA]	not significantly knocked down	did not exhibit this inhibitory effect	–	–
